The subject of series [1] is microbial growth. Nature of the series: Biological testing according to ASTM E2275. In kind it is cell-based. The settings on record: 3-amino-4-octanol in solution at 6 total weight percent at higher. An excerpt:
The solutions of Examples 1 and 3 and Comparative Examples A and B are subjected to biological testing according to ASTM E2275.

The conditions of series [2]: standard temperature and pressure (STP); cited from earlier work.

As for `CCCCC(O)C(N)CC` (centres unmarked) [3-amino-4-octanol], the “resistance to microbial growth” value in series [1] is “enhanced resistant to microbial growth”. For the same compound, the “solubility of 3-amino-4-octanol in water” value in series [2] is recorded as “about 4.5 percent by weight”.

The record behind these values is patent US12559696B2, “Amine containing aqueous fluids and method of producing same” (Illinois Tool Works Inc., priority 2023, dated 2026).
